Assay results: ChEMBL document CHEMBL5518181, “Studies of antibacterial activity (in vitro and in vivo) and mode of action for des-acyl tridecaptins (DATs)” (Eur J Med Chem, 2024)
Converted amounts (≈) assume the structure as drawn. Values belong to the compound of their own block, whether it stands above or below them.

Columns and labels:
[1] = system: Escherichia coli; experiment: Antibacterial activity against wild-type Escherichia coli ATCC 25922 assessed as inhibition of bacterial growth incubated for 18 hrs; type: functional; conditions: for MIC: read-out: MIC100
[2] = system: Klebsiella pneumoniae; experiment: Antibacterial activity against wild-type Klebsiella pneumoniae ATCC 13883 assessed as inhibition of bacterial growth incubated for 18 hrs; type: functional; conditions: for MIC: read-out: MIC100
[3] = Hemolytic activity in human red blood cells at 400 ug/ml incubated for 45 mins by spectrophotometric analysis relative to control; type: toxicity, cell-based, Erythrocyte; conditions: red blood cells (erythrocytes), at 400 µg/mL, read-out: Activity
[4] = Cytotoxicity against human HepG2 cells incubated for 40 hrs by celltiter-glo luminescent cell viability assay; type: toxicity, cell-based
[5] = Binding affinity to gram negative bacterial lipid II assessed as dissociation constant by ITC analysis; set-up: species or system Bacteria
[6] = system: Lipopolysaccharide (LPS); experiment: Binding affinity to Escherichia coli O55:B5 LPS assessed as dissociation constant by ITC analysis; type: subcellular
[7] = system: Citrobacter freundii; experiment: Antibacterial activity against Citrobacter freundii ATCC 8090 assessed as inhibition of bacterial growth incubated for 18 hrs; type: functional
[8] = system: Klebsiella pneumoniae; experiment: Antibacterial activity against Klebsiella pneumoniae ATCC BAA-2470 expressing NDM-1 assessed as inhibition of bacterial growth incubated for 18 hrs; type: functional
[9] = system: Klebsiella pneumoniae; experiment: Antibacterial activity against Klebsiella pneumoniae ATCC 43816 assessed as inhibition of bacterial growth incubated for 18 hrs; type: functional
[10] = system: Klebsiella aerogenes; experiment: Antibacterial activity against Enterobacter aerogenes ATCC 13048 assessed as inhibition of bacterial growth incubated for 18 hrs; type: functional
[11] = system: Escherichia coli; experiment: Antibacterial activity against Escherichia coli ATCC BAA-2469 expressing NDM-1 assessed as inhibition of bacterial growth incubated for 18 hrs; type: functional
[12] = system: Escherichia coli; experiment: Antibacterial activity against colistin resistant Escherichia coli NCTC 13846 harboring mcr-1 gene assessed as inhibition of bacterial growth incubated for 18 hrs; type: functional
[13] = system: Escherichia coli; experiment: Antibacterial activity against Escherichia coli Swiss 7 harboring mcr-1 gene assessed as inhibition of bacterial growth incubated for 18 hrs; type: functional
[14] = system: Escherichia coli; experiment: Antibacterial activity against Escherichia coli Swiss 9 harboring mcr-1 gene assessed as inhibition of bacterial growth incubated for 18 hrs; type: functional
[15] = system: Morganella morganii; experiment: Antibacterial activity against Morganella morganii ATCC 25830 assessed as inhibition of bacterial growth incubated for 18 hrs; type: functional
[16] = system: Proteus mirabilis; experiment: Antibacterial activity against Proteus mirabilis ATCC 25933 assessed as inhibition of bacterial growth incubated for 18 hrs; type: functional
[17] = system: Providencia stuartii; experiment: Antibacterial activity against Providencia stuartii ATCC 25826 assessed as inhibition of bacterial growth incubated for 18 hrs; type: functional
[18] = system: Salmonella typhimurium; experiment: Antibacterial activity against Salmonella typhimurium ATCC 13311 assessed as inhibition of bacterial growth incubated for 18 hrs; type: functional, Salmonella enterica subsp. enterica serovar Typhimurium
[19] = system: Serratia marcescens; experiment: Antibacterial activity against intrinsically colistin resistant Serratia marcescens ATCC 13880 assessed as inhibition of bacterial growth incubated for 18 hrs; type: functional
[20] = system: Pseudomonas aeruginosa; experiment: Antibacterial activity against efflux-deficient Pseudomonas aeruginosa PAO750 assessed as inhibition of bacterial growth incubated for 18 hrs; type: functional
[21] = system: Staphylococcus aureus; experiment: Antibacterial activity against wild type Staphylococcus aureus USA300 assessed as inhibition of bacterial growth incubated for 18 hrs; type: functional
[22] = system: Escherichia coli; experiment: Antibacterial activity against wild-type Escherichia coli ATCC 25922 assessed as inhibition of bacterial growth by measuring fold increase in MIC incubated for 18 hrs in presence of 50% heat inactivated human serum relative to control; type: functional
[23] = system: Escherichia coli; experiment: Antibacterial activity against wild-type Escherichia coli ATCC 25922 assessed as inhibition of bacterial growth incubated for 18 hrs in presence of 50% heat inactivated human serum; type: functional; conditions: read-out: MIC100
[24] = system: Escherichia coli; experiment: Antibacterial activity against Escherichia coli ATCC 25922 harboring hldE knock-out assessed as inhibition of bacterial growth incubated for 18 hrs; type: functional; conditions: read-out: MIC100
[25] = system: Escherichia coli; experiment: Antibacterial activity against Escherichia coli ATCC 25922 harboring tolC knock-out assessed as inhibition of bacterial growth incubated for 18 hrs; type: functional; conditions: read-out: MIC100
[26] = system: Klebsiella pneumoniae; experiment: Antibacterial activity against wild-type Klebsiella pneumoniae ATCC 13883 assessed as inhibition of bacterial growth incubated for 18 hrs in presence of 50% heat inactivated human serum; type: functional; conditions: read-out: MIC100
[27] = system: Acinetobacter baumannii; experiment: Antibacterial activity against wild-type Acinetobacter baumannii ATCC 19606 assessed as inhibition of bacterial growth incubated for 20 hrs; type: functional; conditions: read-out: MIC100
[28] = system: Pseudomonas aeruginosa; experiment: Antibacterial activity against wild-type Pseudomonas aeruginosa PAO1 assessed as inhibition of bacterial growth incubated for 24 hrs; type: functional; conditions: read-out: MIC100
[29] = system: Staphylococcus aureus; experiment: Antibacterial activity against […] assessed as inhibition of bacterial growth incubated for 18 hrs; type: functional; conditions: ATCC 29213, read-out: MIC100
[30] = Hydrophobicity of compound assessed as %MeCN at peak elution by RP-HPLC analysis; type: physicochemical
[31] = system: Enterobacter cloacae; experiment: Antibacterial activity against Enterobacter cloacae ATCC 23355 assessed as inhibition of bacterial growth incubated for 18 hrs; type: functional
[32] = system: Escherichia coli; experiment: Antibacterial activity against Escherichia coli panel (100 strains) assessed as inhibition of bacterial growth; type: functional
[33] = system: Klebsiella pneumoniae; experiment: Antibacterial activity against Klebsiella pneumoniae panel (100 strains) assessed as inhibition of bacterial growth; type: functional

MIC [1]: 16 µg/mL (≈ 11.5 µM)
MIC [2]: 64 µg/mL (≈ 45.9 µM)
Kd [5]: 580 nM
Compound: CC[C@@H](C)[C@@H](NC(=O)[C@@H](NC(=O)[C@H](CCC(=O)O)NC(=O)[C@H](Cc1ccccc1)NC(=O)[C@@H](CCN)NC(=O)[C@H](CCN)NC(=O)[C@H](CO)NC(=O)[C@@H](Cc1c[nH]c2ccccc12)NC(=O)[C@@H](CO)NC(=O)CNC(=O)[C@@H](CCN)NC(=O)[C@H](N)C(C)C)C(C)C)C(=O)N[C@@H](C)C(N)=O
hemolysis at 0.75 h, 400 ug/ml [3]: 0.4%
IC50 at 40 h [4]: > 170 µg/mL
Kd [6]: 11400 nM

Compound: O=C(O)c1cn(C2CC2)c2cc(N3CCNCC3)c(F)cc2c1=O [CIPROFLOXACIN]
MIC [2]: 0.032 µg/mL (≈ 0.0966 µM)
IC50 at 40 h [4]: > 170 µg/mL
MIC ([7]; read-out: MIC100): 0.004 µg/mL (≈ 0.0121 µM)
MIC ([8]; read-out: MIC100): > 1 µg/mL
MIC ([9]; read-out: MIC100): 0.003 µg/mL (≈ 0.00905 µM)
MIC ([10]; read-out: MIC100): 0.008 µg/mL (≈ 0.0241 µM)
MIC ([11]; read-out: MIC100): > 1 µg/mL
MIC ([12]; read-out: MIC100): > 1 µg/mL
MIC ([13]; read-out: MIC100): > 1 µg/mL
MIC ([14]; read-out: MIC100): > 1 µg/mL
MIC ([15]; read-out: MIC100): 0.002 µg/mL (≈ 0.00604 µM)
MIC ([16]; read-out: MIC100): 0.016 µg/mL (≈ 0.0483 µM)
MIC ([17]; read-out: MIC100): 0.016 µg/mL (≈ 0.0483 µM)
MIC ([18]; Salmonella enterica, read-out: MIC100): 0.004 µg/mL (≈ 0.0121 µM)
MIC ([19]; read-out: MIC100): 0.032 µg/mL (≈ 0.0966 µM)
MIC ([20]; read-out: MIC100): 0.004 µg/mL (≈ 0.0121 µM)
MIC ([21]; read-out: MIC100): 1 µg/mL (≈ 3.02 µM)

MIC [1]: 1 µg/mL (≈ 0.663 µM)
MIC [2]: 1 µg/mL (≈ 0.663 µM)
Kd [5]: 4800 nM
Compound: CC[C@H](C)[C@H](N)C(=O)N[C@@H](C(=O)N[C@H](CCN)C(=O)NCC(=O)N[C@H](CO)C(=O)N[C@H](Cc1c[nH]c2ccccc12)C(=O)N[C@@H](CO)C(=O)N[C@@H](CCN)C(=O)N[C@H](CCN)C(=O)N[C@@H](Cc1ccccc1)C(=O)N[C@@H](CCC(=O)O)C(=O)N[C@H](C(=O)N[C@@H](C(=O)N[C@@H](C)C(=O)O)[C@@H](C)CC)C(C)C)C(C)C
hemolysis at 0.75 h, 400 ug/ml [3]: 56.9%
IC50 at 40 h [4]: 20 µg/mL (≈ 13.3 µM)
Kd [6]: 88 nM

Compound: CC[C@H](N)C(=O)N[C@@H](C(=O)N[C@H](CCN)C(=O)NCC(=O)N[C@H](CO)C(=O)N[C@H](Cc1c[nH]c2ccccc12)C(=O)N[C@@H](CO)C(=O)N[C@@H](CCN)C(=O)N[C@H](CCN)C(=O)N[C@@H](Cc1ccccc1)C(=O)N[C@@H](CCC(=O)O)C(=O)N[C@H](C(=O)N[C@@H](C(=O)N[C@@H](C)C(=O)O)[C@@H](C)CC)C(C)C)C(C)C
MIC [1]: 2 µg/mL (≈ 1.35 µM)
MIC [2]: 2 µg/mL (≈ 1.35 µM)
hemolysis at 0.75 h, 400 ug/ml [3]: 8.8%
IC50 at 40 h [4]: 95 µg/mL (≈ 64.2 µM)
fold change (FC) [22]: 2
MIC [23]: 1 µg/mL
MIC [24]: 1 µg/mL (≈ 0.676 µM)
MIC [25]: 1 µg/mL (≈ 0.676 µM)
MIC [26]: 0.5 µg/mL
MIC [27]: 64 µg/mL (≈ 43.3 µM)
MIC [28]: 64 µg/mL (≈ 43.3 µM)
MIC [29]: > 64 µg/mL
MeCN percentage at peak elution [30]: 40.7%

Compound: CC[C@H](C)[C@@H](NC(=O)[C@@H](NC(=O)[C@H](CCC(=O)O)NC(=O)[C@H](Cc1ccccc1)NC(=O)[C@@H](CCN)NC(=O)[C@H](CCN)NC(=O)[C@H](CO)NC(=O)[C@@H](Cc1c[nH]c2ccccc12)NC(=O)[C@@H](CO)NC(=O)CNC(=O)[C@@H](CCN)NC(=O)[C@H](NC(=O)CCCCCN)C(C)C)C(C)C)C(=O)N[C@@H](C)C(=O)O
MIC [1]: 64 µg/mL (≈ 42.4 µM)
MIC [2]: 32 µg/mL (≈ 21.2 µM)
hemolysis at 0.75 h, 400 ug/ml [3]: 3.5%
IC50 at 40 h [4]: > 170 µg/mL
fold change (FC) [22]: 8
MIC [23]: 2 µg/mL
MIC [24]: 8 µg/mL (≈ 5.31 µM)
MIC [25]: 32 µg/mL (≈ 21.2 µM)
MIC [26]: 2 µg/mL
MIC [27]: 64 µg/mL (≈ 42.4 µM)
MIC [28]: > 64 µg/mL
MIC [29]: > 64 µg/mL
MeCN percentage at peak elution [30]: 40.1%

Compound: COLISTIN
MIC100 [1]: 0.5 µg/mL
MIC100 [2]: 2 µg/mL
MIC100 [7]: 2 µg/mL
MIC100 [8]: 4 µg/mL
MIC100 [9]: 1 µg/mL
MIC100 [10]: 2 µg/mL
MIC100 [31]: 2 µg/mL
MIC100 [11]: 2 µg/mL
MIC100 [12]: 8 µg/mL
MIC100 [13]: 8 µg/mL
MIC100 [14]: 8 µg/mL
MIC100 [15]: > 32 µg/mL
MIC100 [16]: > 32 µg/mL
MIC100 [17]: > 32 µg/mL
MIC100 ([18]; Salmonella enterica subsp. enterica serovar Typhimurium): 2 µg/mL
MIC100 [19]: > 32 µg/mL
MIC100 [20]: 2 µg/mL
MIC100 [21]: > 32 µg/mL
MIC50 [32]: < 0.125 µg/mL
MIC90 [32]: 4 µg/mL
MIC50 [33]: 0.5 µg/mL
MIC90 [33]: > 16 µg/mL
